From ChEMBL document CHEMBL4715857, “Structure-based linker exploration: Discovery of 1-ethyl-1H-indole analogs as novel ATX inhibitors” (Bioorg Med Chem, 2020)

Molecular target: Autotaxin (Homo sapiens, UniProt Q13822)
Assay: Inhibition of glycosylated human ATX using FS-3 as substrate preincubated for 45 mins followed by substrate addition and measured every 1 min for 30 mins by fluorescence microplate reader assay

IC50 [nM] | Compound
7240 | CCn1cc(C(=O)N/N=C/c2coc3ccccc3c2=O)c2cc(-c3nc(CN4CCOCC4)cs3)ccc21
2.3 | CCn1cc(NC(=O)NCc2ccc(F)cc2)c2cc(NC(=O)c3ccc(CN4CCC(O)CC4)cc3)ccc21
> 10000 | CCn1cc(C(=O)N/N=C/c2c(O)ccc3ccccc23)c2cc(-c3nc(CN4CCOCC4)cs3)ccc21
6370 | CCn1cc(C(=O)N/N=C/c2ccc(F)cc2Cl)c2cc(-c3nc(CN4CCOCC4)cs3)ccc21
590 | CCn1cc(C(=O)O)c2cc(-c3nc(CN4CCC[C@H]4CO)cs3)ccc21
4050 | CCn1cc(C(=O)N/N=C/c2ccc(F)cc2F)c2cc(-c3nc(CN4CCOCC4)cs3)ccc21
> 10000 | CCn1cc(C(=O)N/N=C(\C)c2ccc(OC)cc2)c2cc(-c3nc(CN4CCOCC4)cs3)ccc21
234 | CCn1cc(NC(=O)NCc2ccc(F)cc2)c2cc(-c3nc(CN(CCO)CCO)cs3)ccc21
313 | CCn1cc(NC(=O)NCc2ccc(F)cc2)c2cc(-c3nc(CN4CCC(O)CC4)cs3)ccc21
101 | CCn1cc(NC(=O)NCc2ccc(F)cc2)c2cc(NC(=O)c3ccc(CN4CCN(CCO)CC4)cc3)ccc21
410 | CCn1cc(C(=O)O)c2cc(-c3nc(CN4CCN(CCO)CC4)cs3)ccc21
530 | CCn1cc(NC(=O)NCc2ccc(F)cc2)c2cc(NC(=O)c3ccc(CN4CCCCC4)cc3)ccc21
280 | CCn1cc(NC(=O)NCc2ccc(F)cc2)c2cc(NC(=O)c3ccc(CN4CCCC4)cc3)ccc21
6140 | CCn1cc(C(=O)N/N=C/c2ccc(C(F)(F)F)cc2)c2cc(-c3nc(CN4CCOCC4)cs3)ccc21
370 | CCn1cc(NC(=O)NCc2ccc(F)cc2)c2cc(NC(=O)c3ccc(CN4CCC(C)CC4)cc3)ccc21
930 | CCn1cc(C(=O)O)c2cc(-c3nc(CN4CCCC4)cs3)ccc21

IC50 [nM] | Compound
> 10000 | CCn1cc(C(=O)N/N=C2\CCc3cc(Br)ccc32)c2cc(-c3nc(CN4CCOCC4)cs3)ccc21
110 | CCn1cc(NC(=O)NCc2ccc(F)cc2)c2cc(NC(=O)c3ccc(CN4CCOCC4)cc3)ccc21
156 | CCn1cc(NC(=O)NCc2ccc(Cl)cc2)c2cc(-c3nc(CN4CCN(CCO)CC4)cs3)ccc21
351 | CCn1cc(NC(=O)NCc2ccc(Cl)cc2)c2cc(NC(=O)c3ccc(CN4CCCC4)cc3)ccc21
8270 | CCn1cc(C(=O)N/N=C2\CCc3cc(OC)c(OC)cc32)c2cc(-c3nc(CN4CCOCC4)cs3)ccc21
107 | CCn1cc(NC(=O)NCc2ccc(Cl)cc2)c2cc(NC(=O)c3ccc(CN4CCOCC4)cc3)ccc21
190 | CCn1cc(NC(=O)NCc2ccc(F)cc2)c2cc(NC(=O)c3ccc(CN4CCN(C)CC4)cc3)ccc21
710 | CCn1cc(C(=O)O)c2cc(-c3nc(CN(CO)CO)cs3)ccc21
252 | CCn1cc(NC(=O)NCc2ccc(F)cc2)c2cc(-c3nc(CN4CCOCC4)cs3)ccc21
3490 | CCn1cc(C(=O)N/N=C/c2ccc(F)c(F)c2)c2cc(-c3nc(CN4CCOCC4)cs3)ccc21
13.1 | CCn1cc(NC(=O)NCc2ccc(Cl)cc2)c2cc(NC(=O)c3ccc(CN4CCC(O)CC4)cc3)ccc21
680 | CCn1cc(C(=O)O)c2cc(-c3nc(CN4CCC(O)CC4)cs3)ccc21
820 | CCn1cc(C(=O)O)c2cc(-c3nc(CN4CCOCC4)cs3)ccc21
1290 | CCn1cc(C(=O)O)c2cc(-c3nc(CN4CCN(C)CC4)cs3)ccc21
9230 | CCn1cc(C(=O)N/N=C(\C)c2ccc(F)cc2F)c2cc(-c3nc(CN4CCOCC4)cs3)ccc21
199 | CCn1cc(NC(=O)NCc2ccc(Cl)cc2)c2cc(-c3nc(CN4CCN(C)CC4)cs3)ccc21
